Molecules are shown by their SMILES.

The source of these data is US6124078A, “Photo-decoloring dye, a binder resin composition containing the same and photo-recording material” (Konica Corporation, priority 1998, dated 2000).

Type in all cases: physicochemical
Series [1] in a line: Solubility of dye in binder resin composition (polyvinyl butyral / methyl ethyl ketone), precipitation after a day at 15° C. Particulars: binder resin composition: polyvinyl butyral resin (Esrex BX-1) 100 mg, methyl ethyl ketone 3.0 ml; stood a day at 15° C. shielded from light. As for the experimental part: Mixing the following raw materials, a binder resin composition containing the photo-decoloring dye was prepared so as to obtain sample 3-1.
Photo-decoloring dye 7 0.3 mmol
Polyvinyl butyral resin (Esrex BX-1)
Methyl ethyl ketone 3.0 ml
Samples 3-2 to 3-12 were obtained in the same way in which sample 3-1 was obtained except replacing the photo-decoloring dye 7 by the following dyes described later. Solubility was evaluated by varying addition amount of each dye. The dyes except for comparative dyes show the photo-decoloring dyes according to the invention. The chemical structures of the comparative dyes A and B (these dyes are used in example 5) are shown below.
After preparing binder resin compositions in which addition amount of the photo-decoloring dyes was increased in serial turn, said binder resin compositions were aloowed to stand under the condition of shielding a light for a day at 15° C. When slight precipitation of the photo-decoloring dyes in said binder resin compositions was observed, the solubility of said photo-decoloring dyes was evaluated as unacceptable.
The solubility of the photo-decoloring dyes was evaluated based on the following criteria in response to the addition amount of said photo-decoloring dyes.
4: Precipitation was not observed in an addition amount of not less than 0.9 mmol.

The nature of series [2]: Storage stability of photo-recording material (60° C., 200 hours, light-shielded). Particulars: (density after storage/initial density)×100, packed with black paper. The text has this:
The binder resin composition containing the photo-decoloring dye used for making sample 3-1 was coated on a polyethylenenaphthalate base having thickness of 4.0 μm by using a wire bar in a coating amount of 2.5 g/m^2 after drying so as to obtain a photo-recording material consisting of a photo-decoloring layer on the polyethylenenaphthalate film. On a back side of said polyethylenenaphthalate base was coated a nitrocellulose layer containing a silicone modified urethane resin (SP-2105, produced by Dainichiseika Co., Ltd.) as a sticking-preventing layer. Thus obtained sample is termed sample 4-1.
By replacing the photo-decoloring dye 7 used in sample 4-1 by such photo-decoloring dyes as described later, sample 4-2 to 4-16 were obtained. Both photo-decoloring ability and storage stability of these dyes were evaluated.
Photo-shielded samples by packing them with black paper were allowed to stand at 60° C. in a thermostatic oven for 200 hours. Storage stability was indicated as follows.
Storage stability=(density after storage/initial density)×100 (%)

The nature of series [3]: Absorption maximum and absorption coefficient in ethyl acetate.

Regarding `CCCCc1nnc2n1N=C(C(C)(C)C)C2=Nc1ccc(O)cc1` [A], in series [1], the Solubility is 2 (Slight precipitation was observed in an addition amount of not less than 0.3 to less than 0.6 mmol.). Besides, the Storage stability in series [2] is listed as 18%.

Take `CCCCc1nnc2c(=Cc3cc(Cl)c(O)c(Cl)c3)c(C(C)(C)C)nn12` [B]: in series [1], the Solubility is 2 (Slight precipitation was observed in an addition amount of not less than 0.3 to less than 0.6 mmol.). Besides, in series [2], the Storage stability came out at 20%.

Molecule `CCN(CC)c1ccc(N=C(C(C)=O)C(=O)Nc2ccccc2)c(C)c1` [C] returned a Storage stability in series [2] of 95%.

In the case of `CCN(CC)c1ccc(N=C2C(=O)N(c3ccccc3)N=C2C)cc1` [D], in series [2], the Storage stability stood at 80%.

Turning to `CCN(CC)c1ccc(N=C2C=CC(=O)c3ccccc32)cc1` [E], the Storage stability in series [2] is listed as 85%.

On to `CN1/C(=C\C=C\C2=[N+](C)c3ccccc3C2(C)C)C(C)(C)c2ccccc21` [F], for which, in series [2], the Storage stability came to 15%.

As to `CCCCCCCCCCCCS(=O)(=O)CCCc1nnc2n1N=C(C(C)(C)C)C2=Nc1cc(Cl)c(O)c(Cl)c1` [compound 7], the Solubility in series [1] is 4 (Precipitation was not observed in an addition amount of not less than 0.9 mmol.). The Storage stability in series [2] is reported as 88%. In series [3], the εmax stood at 93700 and the λmax was determined as 556 nm.

As to `CCC(Oc1ccc(C(C)(C)CC)cc1C(C)(C)CC)C(=O)NCCC(C)c1nnc2n1N=C(C(C)(C)C)C2=Nc1cc(Cl)c(O)c(Cl)c1` (stereo not drawn) [compound 11], the Solubility in series [1] is given as 4 (Precipitation was not observed in an addition amount of not less than 0.9 mmol.). In series [2], this molecule gave a Storage stability of 80%.

As to `CCCCCCCCCCCCOc1ccc(S(=O)(=O)NCC(C)(C)c2nnc3n2N=C(C(C)(C)C)C3=Nc2cc(Cl)c(O)c(Cl)c2)cc1` [compound 13], the Solubility in series [1] is given as 3 (Slight precipitation was observed in an addition amount of not less than 0.6 to less than 0.9 mmol.). This molecule also came in with a Storage stability in series [2] of 75%.

For `CCCCCCCCCCCCC(Oc1ccc(OC(C)=O)c(C(C)(C)C)c1)C(=O)NCCc1nnc2n1N=C(C)C2=Nc1cc(Cl)c(O)c(Cl)c1` (stereo not drawn) [compound 17], the Solubility in series [1] is 4 (Precipitation was not observed in an addition amount of not less than 0.9 mmol.). The same molecule showed a Storage stability in series [2] of 85%.

Take `CCCCC(Oc1ccc(C(C)(C)CC)cc1C(C)(C)CC)C(=O)Nc1ccc2nc3n(c2c1)N=C(C)C3=Nc1cc(Cl)c(O)c(Cl)c1` (stereo not drawn) [compound 32]: the Solubility in series [1] is reported as 3 (Slight precipitation was observed in an addition amount of not less than 0.6 to less than 0.9 mmol.). The molecule also showed a Storage stability in series [2] of 90%.

As to `CCC(C)(C)c1ccc(OCC(=O)Nc2ccnc(-c3cnc4n3N=C(C(C)(C)C)C4=Nc3cc(Cl)c(O)c(Cl)c3)c2)c(C(C)(C)CC)c1` [compound 33], in series [1], the Solubility is reported as 4 (Precipitation was not observed in an addition amount of not less than 0.9 mmol.). Further, the Storage stability in series [2] is recorded as 77%.

For the molecule `CCCCCCCCCCCCS(=O)(=O)NCCc1nc2c(=Cc3cc(Cl)c(O)c(Cl)c3)c(C(C)(C)C)nn2n1` [compound 47], the Solubility in series [1] was 4 (Precipitation was not observed in an addition amount of not less than 0.9 mmol.). This molecule showed a Storage stability in series [2] of 82%.

In the case of `CCCCCCCCCCCCS(=O)(=O)CCCc1nnc2c(=Cc3cc(Cl)c(O)c(Cl)c3)c(C(C)(C)C)nn12` [compound 58], the Solubility in series [1] was 4 (Precipitation was not observed in an addition amount of not less than 0.9 mmol.). The molecule also displayed a Storage stability in series [2] of 80%. Moreover, in series [3], the εmax turned out to be 105300 and the λmax came to 540 nm.

In series [3], `CCCCCCCCCCCCS(=O)(=O)CCCc1nnc2c(=Cc3cc(Cl)c(O)c(Cl)c3)c(C(C)(C)C)nn12` [compound 78] displayed a εmax of 94800 and a λmax of 543 nm.
